Experimental data reported in patent publication US6207399A, “Methods of determining endogenous thrombin potential (ETP) and thrombin substrates for use in said methods” (Hemker; Hendrik Coenraad, priority 1995, dated 2001).
Peptide text beside a SMILES is read from it. * marks the point of attachment. pNA = O=[N+]([O-])c1ccc(N*)cc1

Legend:
[1] = molecular target: thrombin (Homo sapiens, UniProt P00734); assay: Kinetic parameters of hydrolysis of the substrates by thrombin in buffer A at 37° C. (Example 4, Table 3); type: biochemical; parameters: Pure human α-thrombin; gift of Dr. T. Lindhout (University of Limburg, Maastricht); conditions: buffer A, 37° C.
Description: (§1) Kinetic parameters: The hydrolysis experiments were run in buffer A at 37° C. The liberation of p-nitroaniline was monitored at 405 nm in a dual wavelength (405-546 nm) spectrophotometer made in our workshop, using a personal computer for data recording. In a polystyrene microcuvette (total volume 500 μL), buffer A and substrate solution were added to obtain a final substrate concentration between 200 to 2000 μM. After 5 min of incubation at 37° C., enzyme solution was added to achieve a final concentration between 0.5 to 50 nM. The measurement was carried out at 37° C. in a thermostated cuvette-holder. The Michaelis constant (Km) and the catalytic constant (kcat) were obtained by measuring the initial reaction velocities at different substrate concentrations. The data obtained were fitted by linear regression on the Michaelis-Menten equation.
(§2) Kinetic parameters: The Km and kcat values for each substrate were determined at an enzyme concentration of 0.5-50 nM (thrombin) and 50 nM factor Xa. From the initial reaction velocities, measured for at least six substrate concentrations between 200 and 2000 μM, the Km and kcat values were calculated by linear regression on the Michaelis-Menten curve. Table 3 gives an overview of the kinetic parameters of the different substrates hydrolyzed by thrombin and by factor Xa in buffer A.

[2] = molecular target: T1, factor Xa (Homo sapiens, UniProt P00742); assay: Kinetic parameters of hydrolysis of the substrates by factor Xa in buffer A at 37° C. (Example 4, Table 3); type: biochemical; conditions: buffer A, 37° C., 50 nM factor Xa
T1 construct: human factor Xa samples; gift of Dr. T. Lindhout (University of Limburg, Maastricht)
T1 sequence (P00742 41-179 limits assumed): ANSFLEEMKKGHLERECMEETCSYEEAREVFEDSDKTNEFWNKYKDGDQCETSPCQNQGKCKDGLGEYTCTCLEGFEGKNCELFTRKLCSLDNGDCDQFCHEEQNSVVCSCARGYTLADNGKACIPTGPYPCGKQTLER
T1 sequence (P00742 235-488 limits assumed): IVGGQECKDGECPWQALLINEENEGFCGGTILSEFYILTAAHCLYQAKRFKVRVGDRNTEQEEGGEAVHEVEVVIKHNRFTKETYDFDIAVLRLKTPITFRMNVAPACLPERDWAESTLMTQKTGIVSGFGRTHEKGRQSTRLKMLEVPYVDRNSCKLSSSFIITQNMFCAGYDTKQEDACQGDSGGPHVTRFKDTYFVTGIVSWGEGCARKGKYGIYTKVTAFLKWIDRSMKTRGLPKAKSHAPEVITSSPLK
Description: as §1, §2

[3] = test system: thrombin generation in tissue factor triggered plasma; assay: Manual determination of thrombin generation in plasma (subsampling method) and calculated prothrombinase activity; type: biochemical, human; conditions: for influence on the prothrombinase complex / coagulation cascade: calculated from decay constants and manual thrombin generation curves
Description: Manual determination of thrombin generation in plasma: Extrinsic pathway: To 480 μL defibrinated plasma were added: 172 μL buffer A which contains the substrate at concentrations between 0 to 2000 μM and 20 μL of a 54 μM phospholipid solution (final concentration: 1.5 μM). After incubation of 4 min at 37° C., 24 μL tissue factor (undiluted) was added. Thrombin formation started at zero time by adding 24 μL of a 0.5 M CaCl2 solution (final concentration: 16.67 mM). At regular time intervals of 12 s samples of 10 μL were subsampled as described above. From the amidolytic activities thus obtained, the thrombin generation curve can be drawn. […] Intrinsic pathway: To 480 μL defibrinated plasma were added: 168 μL buffer A which contains the substrate at concentrations between 0 to 1000 μM and 48 μL Actin FS (undiluted). This mixture was intensively mixed and incubated for 4 min at 37° C. Thrombin generation was started at zero time by adding 24 μL of a 0.5 M CaCl2 solution (final concentration: 16.67 mM).
Influence of the substrate on the prothrombinase-complex: With the obtained decay constants and from the curves obtained by the subsampling method we calculated the course of prothrombin conversion and the course of prothrombinase concentration.
Manual determination of thrombin generation in plasma: Extrinsic pathway: To 480 μL defibrinated plasma were added: 172 μL buffer A which contained the substrate at concentrations between 0 to 2000 μM and 20 μL of a 54 μM phospholipid solution (final concentration: 1.5 μM). After incubation for 4 min at 37° C., 24 μL tissue factor (undiluted) was added. Thrombin formation started at zero time by adding 24 μL of a 0.5 M CaCl2 solution (final concentration: 16.67 mM). At regular time intervals of 12 s samples of 10 μL were subsampled as described above. From the amidolytic activities thus obtained, the thrombin generation curve can be drawn.
Influence of the substrate on the prothrombinase-compzex: With the obtained decay constants and from the curves obtained by the subsampling method we calculated the course of prothrombin conversion and the course of prothrombinase concentration.

[4] = molecular target: T2, euglobulin thrombin (Homo sapiens, UniProt P00734); assay: Decay constants of thrombin in plasma; type: biochemical
T2 construct: The euglobulin thrombin fraction was prepared from defibrinated human plasma; from tissue; host or cells: defibrinated human plasma (euglobulin fraction, acid precipitation, method of Josso and Prou-Wartelle)
Description: (§3) To this mixture was added 10 μL of a thrombin preparation to achieve a final concentration of 100 nM. At regular time intervals (5-10 s) 10 μL samples were subsampled into 490 μL buffer B which contained 200 μM of S2238 to determine thrombin activity. After 2 min the reaction was stopped by adding 300 μL 1M citric acid. The moment of sampling and stopping were recorded on a personal computer with pushbutton-equipped pipettes. The optical density was then read at 405 nm and the obtained amidolytic activities were used to calculate the decay constants. The obtained decay constant is the sum of the decay constants of the reaction of thrombin with antithrombin III (k1) and α2 -macroglobulin (k2).
as §3, with “Decay constants of thrombin in plasma: To 120 μL defibrinated plasma was added: 50 μL of buffer A which contained the substances to be tested. To” for “To”, “was” for “was then”

CC(C)[C@H](NC(=O)CNC(=O)CNC(=O)[C@@H](N)CCC(=O)O)C(=O)N[C@@H](CCCNC(=N)N)C(=O)Nc1ccc([N+](=O)[O-])cc1 [2HCl.H-Glu-Gly-Gly-Val-Arg-pNA] (H-EGGVR-pNA)
Km [1]: 1010 µM
Thrombin kcat [1]: 0.55 s⁻¹
Thrombin kcat /Km [1]: 542 M/s
Factor Xa kcat [2]: 0.42 s⁻¹
Factor Xa kcat /Km [2]: 192 M/s
Km [2]: 2190 µM
AA: amidolytic activity (maximum) ([3]; [S] 200 μM): 350.62 mOD/min
PT: prothrombinase concentration (maximum) ([3]; [S] 200 μM): 1086 mOD/min
T: thrombin concentration (maximum) ([3]; [S] 200 μM): 335.47 mOD/min
t: time point at which maximum of amidolytic activity is achieved ([3]; [S] 200 μM): 60 s
t: time point at which maximum of prothrombinase concentration is achieved ([3]; [S] 200 μM): 24 s
t: time point at which maximum of thrombin concentration is achieved ([3]; [S] 200 μM): 60 s
k2,M : k2 determined by the subsampling method ([3]; [S] 200 μM in plasma): 0.220 min⁻¹
AA: amidolytic activity (maximum) ([3]; [S] 500 μM): 376.42 mOD/min
PT: prothrombinase concentration (maximum) ([3]; [S] 500 μM): 1122 mOD/min
T: thrombin concentration (maximum) ([3]; [S] 500 μM): 359.48 mOD/min
t: time point at which maximum of amidolytic activity is achieved ([3]; [S] 500 μM): 60 s
t: time point at which maximum of prothrombinase concentration is achieved ([3]; [S] 500 μM): 24 s
t: time point at which maximum of thrombin concentration is achieved ([3]; [S] 500 μM): 60 s
k2,M : k2 determined by the subsampling method ([3]; [S] 500 μM in plasma): 0.192 min⁻¹
AA: amidolytic activity (maximum) ([3]; [S] 1000 μM): 409.85 mOD/min
PT: prothrombinase concentration (maximum) ([3]; [S] 1000 μM): 1149 mOD/min
T: thrombin concentration (maximum) ([3]; [S] 1000 μM): 396.23 mOD/min
t: time point at which maximum of amidolytic activity is achieved ([3]; [S] 1000 μM): 60 s
t: time point at which maximum of prothrombinase concentration is achieved ([3]; [S] 1000 μM): 24 s
t: time point at which maximum of thrombin concentration is achieved ([3]; [S] 1000 μM): 60 s
k2,M : k2 determined by the subsampling method ([3]; [S] 1000 μM in plasma): 0.169 min⁻¹
influence on the prothrombinase complex / coagulation cascade [3]: no inhibition of the prothrombinase activity
(k1,corr) = k1,corr divided by μM AT-III ([4]; [S] 200 μM in plasma): 20380 M⁻¹ s⁻¹
k1,corr : k1 after correcting for k2,M and 0.170 ([4]; [S] 200 μM in plasma): 1.769 min⁻¹
k1 : AT-III dependent decay of thrombin ([4]; [S] 200 μM in plasma): 1.946 min⁻¹
k2 : α2 M dependent decay of thrombin ([4]; [S] 200 μM in plasma): 0.213 min⁻¹
koverall ([4]; [S] 200 μM in plasma): 2.159 min⁻¹
t1/2 ([4]; [S] 200 μM in plasma): 19.26 s
(k1,corr) = k1,corr divided by μM AT-III ([4]; [S] 500 μM in plasma): 19150 M⁻¹ s⁻¹
k1,corr : k1 after correcting for k2,M and 0.170 ([4]; [S] 500 μM in plasma): 1.662 min⁻¹
k1 : AT-III dependent decay of thrombin ([4]; [S] 500 μM in plasma): 1.733 min⁻¹
k2 : α2 M dependent decay of thrombin ([4]; [S] 500 μM in plasma): 0.291 min⁻¹
koverall ([4]; [S] 500 μM in plasma): 2.024 min⁻¹
t1/2 ([4]; [S] 500 μM in plasma): 21.04 s
(k1,corr) = k1,corr divided by μM AT-III ([4]; [S] 1000 μM in plasma): 16400 M⁻¹ s⁻¹
k1,corr : k1 after correcting for k2,M and 0.170 ([4]; [S] 1000 μM in plasma): 1.427 min⁻¹
k1 : AT-III dependent decay of thrombin ([4]; [S] 1000 μM in plasma): 1.594 min⁻¹
k2 : α2 M dependent decay of thrombin ([4]; [S] 1000 μM in plasma): 0.172 min⁻¹
koverall ([4]; [S] 1000 μM in plasma): 1.766 min⁻¹
t1/2 ([4]; [S] 1000 μM in plasma): 23.56 s

CC(C)[C@H](NC(=O)OCCS(C)(=O)=O)C(=O)N[C@@H](CCCNC(=N)N)C(=O)Nc1ccc([N+](=O)[O-])cc1.Cl [Msc-Val-Arg-pNA.HCl]
Km [1]: 882 µM
Thrombin kcat [1]: 0.79 s⁻¹
Thrombin kcat /Km [1]: 894 M/s
Factor Xa kcat [2]: 4.69 s⁻¹
Factor Xa kcat /Km [2]: 491 M/s
Km [2]: 9550 µM
AA: amidolytic activity (maximum) ([3]; [S] 200 μM): 388.15 mOD/min
PT: prothrombinase concentration (maximum) ([3]; [S] 200 μM): 1119 mOD/min
T: thrombin concentration (maximum) ([3]; [S] 200 μM): 371.24 mOD/min
t: time point at which maximum of amidolytic activity is achieved ([3]; [S] 200 μM): 60 s
t: time point at which maximum of prothrombinase concentration is achieved ([3]; [S] 200 μM): 24 s
t: time point at which maximum of thrombin concentration is achieved ([3]; [S] 200 μM): 60 s
k2,M : k2 determined by the subsampling method ([3]; [S] 200 μM in plasma): 0.198 min⁻¹
AA: amidolytic activity (maximum) ([3]; [S] 500 μM): 387.15 mOD/min
PT: prothrombinase concentration (maximum) ([3]; [S] 500 μM): 1090 mOD/min
T: thrombin concentration (maximum) ([3]; [S] 500 μM): 374.80 mOD/min
t: time point at which maximum of amidolytic activity is achieved ([3]; [S] 500 μM): 60 s
t: time point at which maximum of prothrombinase concentration is achieved ([3]; [S] 500 μM): 24 s
t: time point at which maximum of thrombin concentration is achieved ([3]; [S] 500 μM): 60 s
k2,M : k2 determined by the subsampling method ([3]; [S] 500 μM in plasma): 0.178 min⁻¹
AA: amidolytic activity (maximum) ([3]; [S] 1000 μM): 456.42 mOD/min
PT: prothrombinase concentration (maximum) ([3]; [S] 1000 μM): 1346 mOD/min
T: thrombin concentration (maximum) ([3]; [S] 1000 μM): 443.82 mOD/min
t: time point at which maximum of amidolytic activity is achieved ([3]; [S] 1000 μM): 60 s
t: time point at which maximum of prothrombinase concentration is achieved ([3]; [S] 1000 μM): 24 s
t: time point at which maximum of thrombin concentration is achieved ([3]; [S] 1000 μM): 60 s
k2,M : k2 determined by the subsampling method ([3]; [S] 1000 μM in plasma): 0.144 min⁻¹
influence on the prothrombinase complex / coagulation cascade [3]: no inhibition of the prothrombinase activity
(k1,corr) = k1,corr divided by μM AT-III ([4]; [S] 200 μM in plasma): 18300 M⁻¹ s⁻¹
k1,corr : k1 after correcting for k2,M and 0.170 ([4]; [S] 200 μM in plasma): 1.590 min⁻¹
k1 : AT-III dependent decay of thrombin ([4]; [S] 200 μM in plasma): 1.729 min⁻¹
k2 : α2 M dependent decay of thrombin ([4]; [S] 200 μM in plasma): 0.229 min⁻¹
koverall ([4]; [S] 200 μM in plasma): 1.958 min⁻¹
t1/2 ([4]; [S] 200 μM in plasma): 21.24 s
(k1,corr) = k1,corr divided by μM AT-III ([4]; [S] 500 μM in plasma): 16600 M⁻¹ s⁻¹
k1,corr : k1 after correcting for k2,M and 0.170 ([4]; [S] 500 μM in plasma): 1.444 min⁻¹
k1 : AT-III dependent decay of thrombin ([4]; [S] 500 μM in plasma): 1.614 min⁻¹
k2 : α2 M dependent decay of thrombin ([4]; [S] 500 μM in plasma): 0.178 min⁻¹
koverall ([4]; [S] 500 μM in plasma): 1.792 min⁻¹
t1/2 ([4]; [S] 500 μM in plasma): 23.22 s
(k1,corr) = k1,corr divided by μM AT-III ([4]; [S] 1000 μM in plasma): 9100 M⁻¹ s⁻¹
k1,corr : k1 after correcting for k2,M and 0.170 ([4]; [S] 1000 μM in plasma): 0.790 min⁻¹
k1 : AT-III dependent decay of thrombin ([4]; [S] 1000 μM in plasma): 0.980 min⁻¹
k2 : α2 M dependent decay of thrombin ([4]; [S] 1000 μM in plasma): 0.124 min⁻¹
koverall ([4]; [S] 1000 μM in plasma): 1.104 min⁻¹
t1/2 ([4]; [S] 1000 μM in plasma): 37.70 s
